The source of these data is patent publication US9682043B2, “Method of preparation of mixed phase co-crystals with active agents” (MedCrystalForms, LLC, priority 2003, dated 2017).

This data set can be described thus: Intrinsic dissolution of itraconazole mixed phase co-crystals. It counts as physicochemical. The following applies: 3% sodium lauryl sulfate 20% isopropanol:0.1 N HCl (1:1). The source says:
FIG. 5 is a graph showing the intrinsic dissolution rate of itraconazole mixed phase co-crystals in a 3% sodium lauryl sulfate 20% isopropanol:0.1 N HCl (1:1) media.

On to Itraconazole [Control (Intact API)], for which the “Intrinsic Dissolution Rate” value turned out to be 11.1 mcg/min/cm^2.
